Data taken from US10590056B2, “ERR modulators and uses thereof” (CITY OF HOPE, priority 2017, dated 2020).
Entries after “also recorded” stand apart in the source; their conditions may differ.

Legend:
human ERRα = molecular target: T1, human ERRα (Homo sapiens, UniProt P11474); test: GAL4 DBD-ERRα LBD cotransfection luciferase reporter assay in CV-1 cells; format: cell-based; settings: for IC50: CV-1 cells co-transfected with reporter and expression vectors, human ERRα LBD; for activity on ERRα, in words: cell-based screening; for effect on ERRα transcriptional activity: up to 3 μM
T1 construct: expressed in transfected cells; host or cells: CV-1 cells, cytomegalovirus-driven expression vectors
T1 sequence (P11474 193-421 limits assumed): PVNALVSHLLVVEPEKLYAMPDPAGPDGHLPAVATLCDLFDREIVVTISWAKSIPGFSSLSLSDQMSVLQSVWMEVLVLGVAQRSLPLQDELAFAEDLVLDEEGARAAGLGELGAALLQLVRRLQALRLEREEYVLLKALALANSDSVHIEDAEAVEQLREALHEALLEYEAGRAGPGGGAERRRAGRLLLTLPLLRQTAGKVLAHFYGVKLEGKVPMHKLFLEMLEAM
Method: (§1) To assess the functional transcriptional activity of these compounds, cell-based assays using chimeric receptor Gal4 DNA-binding domain (DBD)-NR ligand binding domain cotransfection assay (LBDs of ERRα, ERRγ, and ERRβ) were performed. As an initial screen to determine the ERRγ and ERRβ inhibitory activity and selectivity, all compounds were evaluated for in vitro potency and selectivity by transfection testing, using CV-1 cells transfected with human and mouse ERRs. MH100×4 is a luciferase reporter with four copies of a GAL4 UASG response element, where GAL-I refers to the ligand-binding domain of the indicated receptor fused to the C-terminus of the GAL4 DNA-binding domain. Assays were performed using a Biomek automated workstation in which the genes for the nuclear receptor, as well as a plasmid containing a response element upstream of a luciferase cDNA, are transfected into CV-1 cells. Compounds were evaluated for their ability to inhibit human ERRs at 0.03, 0.1, 0.5, 1, 2.5, 3, and 10 μM test concentrations. […] Z-4-OHT used as a known ERRγ and ERRβ inverse agonist to compare the constitutive activity of unliganded ERRγ and ERRβ.
(§2) Cell culture. CV-1 cells were grown in Dulbecco's modified Eagle's medium supplemented with 10% resin charcoalstripped fetal bovine serum, 50 U/ml penicillin G, and 50 μg/ml streptomycin sulfate (DMEM-FBS) at 37° C. in 5% CO2. One day prior to transfection, cells were plated to 50%-80% confluence using phenol red free DMEM-FBS. The adenoviral construct, Ad-GFP and Ad-ERRα have been described.^55 Propagation of recombinant adenovirus was performed in 293 cells as described.^11
(§3) Cell based transactivation assays were performed in CV-1 cells as described.^49 ERR activity was assayed with a GAL4 reporter construct and fusion proteins containing the ligand binding domains of human ERRα, human ERRβ and mouse ERRγ linked to the DNA binding domain of yeast GAL4. Human ERα and ERβ were examined as full-length proteins using an estrogen receptor responsive reporter construct. Reporter constructs (300 ng/10^5 cells) and cytomegalovirus-driven expression vectors (20-50 ng/10^5 cells) were added as indicated along with CMX-β-gal (500 ng/10^5 cells) as an internal control. Cells were transiently transfected by Lipofectamine as described.^56 Cells were incubated with DNA complexed liposomes for 2 hours and subsequently treated for approximately 45 hr with phenol red free DMEM FBS containing the indicated compounds. After exposure to ligand, the cells were harvested and assayed for luciferase and β-galactosidase activity. […] Fold activation is reported.

human ERRβ = molecular target: T2, human ERRβ (Homo sapiens, UniProt O95718); test: GAL4 DBD-ERRβ LBD cotransfection luciferase reporter assay in CV-1 cells; format: cell-based; settings: for activity on ERRβ, in words: cell-based cotransfection assay; for identified as (inverse agonist class / selectivity): ERRα, ERRβ, ERRγ transactivation panel
T2 construct: expressed in transfected cells; host or cells: CV-1 cells, cytomegalovirus-driven expression vectors
T2 sequence (O95718 208-432 limits assumed): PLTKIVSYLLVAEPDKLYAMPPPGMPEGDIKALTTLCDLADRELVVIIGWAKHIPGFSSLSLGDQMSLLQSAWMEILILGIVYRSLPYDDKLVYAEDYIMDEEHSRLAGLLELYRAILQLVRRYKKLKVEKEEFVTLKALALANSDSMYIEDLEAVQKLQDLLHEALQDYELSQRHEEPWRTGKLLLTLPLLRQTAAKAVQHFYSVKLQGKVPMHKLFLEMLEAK
Method: as §1, §2, §3

mouse ERRγ = molecular target: T3, mouse ERRγ (Mus musculus, UniProt P62509); test: GAL4 DBD-ERRγ LBD cotransfection luciferase reporter assay in CV-1 cells; format: cell-based; settings: for IC50: CV-1 cells co-transfected with reporter and expression vectors, mouse ERRγ LBD; for activity on ERRγ, in words: cell-based cotransfection assay, 1g, 1h: at the higher dose; for effect on ERRγ transcriptional activity: up to 3 μM
T3 construct: expressed in transfected cells; host or cells: CV-1 cells, cytomegalovirus-driven expression vectors
T3 sequence (P62509 233-457 limits assumed): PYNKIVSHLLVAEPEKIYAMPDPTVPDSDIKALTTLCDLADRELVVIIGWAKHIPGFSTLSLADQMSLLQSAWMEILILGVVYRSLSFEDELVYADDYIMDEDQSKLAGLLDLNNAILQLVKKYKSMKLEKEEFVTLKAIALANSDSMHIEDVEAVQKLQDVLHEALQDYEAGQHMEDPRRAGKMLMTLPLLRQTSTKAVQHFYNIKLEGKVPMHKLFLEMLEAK
Method: as §1, §2, §3

Human ERα = molecular target: T4, Human ERα (Homo sapiens, UniProt P03372); test: Full-length ERα, estrogen receptor responsive reporter assay in CV-1 cells; format: cell-based; settings: up to 3 μM
T4 construct: Human ERα and ERβ were examined as full-length proteins using an estrogen receptor responsive reporter construct; expressed in transfected cells; host or cells: CV-1 cells, cytomegalovirus-driven expression vectors
T4 sequence (P03372 1-595): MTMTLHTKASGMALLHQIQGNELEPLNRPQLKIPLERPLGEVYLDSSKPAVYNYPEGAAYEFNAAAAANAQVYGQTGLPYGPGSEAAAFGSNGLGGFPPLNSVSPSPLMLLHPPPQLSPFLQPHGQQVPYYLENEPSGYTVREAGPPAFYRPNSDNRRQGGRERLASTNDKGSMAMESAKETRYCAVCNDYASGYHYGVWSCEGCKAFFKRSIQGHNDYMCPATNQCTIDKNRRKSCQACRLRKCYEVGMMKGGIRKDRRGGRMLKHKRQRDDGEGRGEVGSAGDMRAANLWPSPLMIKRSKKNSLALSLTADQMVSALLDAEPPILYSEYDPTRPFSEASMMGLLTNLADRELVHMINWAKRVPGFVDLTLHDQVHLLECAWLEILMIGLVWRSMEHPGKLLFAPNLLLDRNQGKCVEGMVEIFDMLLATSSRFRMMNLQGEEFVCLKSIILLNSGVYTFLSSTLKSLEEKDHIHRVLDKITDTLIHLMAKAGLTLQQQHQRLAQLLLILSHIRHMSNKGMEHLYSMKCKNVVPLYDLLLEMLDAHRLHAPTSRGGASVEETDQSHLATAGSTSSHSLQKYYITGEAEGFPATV
Method: (§4) Cell based transactivation assays were performed in CV-1 cells as described.^49 ERR activity was assayed with a GAL4 reporter construct and fusion proteins containing the ligand binding domains of human ERRα, human ERRβ and mouse ERRγ linked to the DNA binding domain of yeast GAL4. Human ERα and ERβ were examined as full-length proteins using an estrogen receptor responsive reporter construct. Reporter constructs (300 ng/10^5 cells) and cytomegalovirus-driven expression vectors (20-50 ng/10^5 cells) were added as indicated along with CMX-β-gal (500 ng/10^5 cells) as an internal control. Cells were transiently transfected by Lipofectamine as described.^56 Cells were incubated with DNA complexed liposomes for 2 hours and subsequently treated for approximately 45 hr with phenol red free DMEM FBS containing the indicated compounds. After exposure to ligand, the cells were harvested and assayed for luciferase and β-galactosidase activity. All points were assayed in triplicate and varied by less than 15%. Each experiment was repeated three or more times with similar results. Fold activation is reported.

Human ERβ = molecular target: T5, Human ERβ (Homo sapiens, UniProt Q92731); test: Full-length ERβ, estrogen receptor responsive reporter assay in CV-1 cells; format: cell-based; settings: up to 3 μM
T5 construct: Human ERα and ERβ were examined as full-length proteins using an estrogen receptor responsive reporter construct; expressed in transfected cells; host or cells: CV-1 cells, cytomegalovirus-driven expression vectors
Method: as §4

ER = settings: % of the affinity of the Z isomer of 4-OHT; cited from earlier work
[1] = CV-1 cells co-transfected with reporter and expression vectors, human ERRβ LBD

T5 sequence (Q92731 whole entry): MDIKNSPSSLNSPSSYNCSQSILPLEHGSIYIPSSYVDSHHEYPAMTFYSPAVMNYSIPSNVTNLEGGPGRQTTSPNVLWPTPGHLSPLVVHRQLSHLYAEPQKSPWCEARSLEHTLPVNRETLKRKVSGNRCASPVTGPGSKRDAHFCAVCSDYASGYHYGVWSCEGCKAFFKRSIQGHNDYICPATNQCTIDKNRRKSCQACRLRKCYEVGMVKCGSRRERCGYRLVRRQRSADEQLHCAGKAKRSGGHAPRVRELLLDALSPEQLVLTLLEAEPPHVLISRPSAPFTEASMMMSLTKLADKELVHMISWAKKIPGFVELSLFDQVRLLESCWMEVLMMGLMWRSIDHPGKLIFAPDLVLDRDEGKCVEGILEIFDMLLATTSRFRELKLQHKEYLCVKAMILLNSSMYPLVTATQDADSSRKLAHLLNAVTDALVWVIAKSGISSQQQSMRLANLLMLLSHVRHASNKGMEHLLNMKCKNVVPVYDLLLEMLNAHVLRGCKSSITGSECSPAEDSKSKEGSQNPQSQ

| SMILES | IC50 (human ERRα) [nM] | IC50 (human ERRβ; [1]) [nM] | IC50 (mouse ERRγ) [nM] | identified as (inverse agonist class / selectivity) (human ERRβ) | activity on ERRγ, in words (mouse ERRγ) | further results |
| --- | --- | --- | --- | --- | --- | --- |
| CC/C(=C(\c1ccc(O)cc1)c1ccc(OCCN(C)C)cc1)c1ccccc1 [Compound Z-4-OHT, reference compound] | > 10000 | 650 | 600 | – | has the required activity; also recorded: more potent than E-4-OHT | activity on ERRβ, in words (human ERRβ): has the required activity; also recorded: more potent than E-4-OHT |
| CC(C)/C(=C(\c1ccc(O)cc1)c1ccc(OCCN(C)C)cc1)c1ccccc1 [Compound 3a, (Z)-4-[1-(4-Dimethylaminoethoxy-phenyl)-3-methyl-2-phenyl-but-1-enyl]-phenol] | > 10000 | 210 | 290 | ERRβ and ERRγ inverse agonists | – | fold greater potency than Z-4-OHT on ERRβ (human ERRβ; compared to Z-4-OHT): 3 fold; fold greater potency than Z-4-OHT on ERRγ (mouse ERRγ; compared to Z-4-OHT): 3 fold |
| COC(=O)C(C)C/C(=C(\c1ccc(O)cc1)c1ccc(OCCN(C)C)cc1)c1ccccc1 (stereo not shown) [Compound 3h, (Z)-5-[4-(2-Dimethylamino-ethoxy)-phenyl]-5-(4-hydroxyphenyl)-2-methyl-4-phenyl-pent-4-enoic acid methyl ester] | > 10000 | – | 2780 | selective inverse agonist for the ERRβ; also recorded: ERRβ inverse agonists | – | effect on ERRα transcriptional activity (human ERRα): no effect; IC50 (human ERRβ; cell-based transactivation in CV-1 cells): 50 nM; effect on ERRγ transcriptional activity (mouse ERRγ): no effect; effect on ERα transcriptional activity (Human ERα): no effect; effect on ERβ transcriptional activity (Human ERβ): no effect |
| COC(=O)C(C)CC(=C(c1ccc(O)cc1)c1ccc(O)cc1)c1ccccc1 (stereo not shown) [Compound 1h, 5,5-Bis (4-hydroxyphenyl)-2-methyl-4-phenyl-pent-4-enoic acid methyl ester] | > 10000 | 300 | 5500 | selective inverse agonists for the ERRβ | not active | activity on ERRα, in words (human ERRα): not active |
| CC/C(=C(/c1ccc(O)cc1)c1ccc(OCCN(C)C)cc1)c1ccccc1 [Compound E-4-OHT, reference compound] | – | – | – | – | much less active | activity on ERRβ, in words (human ERRβ): much less active; affinity for the ER relative to the Z isomer (ER): about 5% |
| CCCC(=C(c1ccc(O)cc1)c1ccc(O)cc1)c1ccccc1 [Compound 1b, 1,1-Bis (4-hydroxyphenyl)-2-phenylpent-1-ene] | – | – | – | – | – | melting point: 192.7 °C |

Further lines, with some results ahead:

| IC50 (human ERRα) [nM] | IC50 (human ERRβ; [1]) [nM] | IC50 (mouse ERRγ) [nM] | identified as (inverse agonist class / selectivity) (human ERRβ) | SMILES | activity on ERRγ, in words (mouse ERRγ) | further results |
| --- | --- | --- | --- | --- | --- | --- |
| > 10000 | 600 | 6500 | selective inverse agonists for the ERRβ | COC(=O)CCC(=C(c1ccc(O)cc1)c1ccc(O)cc1)c1ccccc1 [Compound 1g, 5,5-Bis (4-hydroxyphenyl)-4-phenyl-pent-4-enoic acid methyl ester] | not active | activity on ERRα, in words (human ERRα): not active |
| > 10000 | 350 | 3500 | – | COC(=O)CC/C(=C(\c1ccc(O)cc1)c1ccc(OCCN(C)C)cc1)c1ccccc1 [Compound 3g, (Z)-5-[4-(2-Dimethylamino-ethoxy)-phenyl]-5-(4-hydroxyphenyl)-4-phenyl-pent-4-enoic acid methyl ester] | – | effect on ERRα transcriptional activity (human ERRα): no effect; effect on ERRγ transcriptional activity (mouse ERRγ): no effect; effect on ERα transcriptional activity (Human ERα): no effect; effect on ERβ transcriptional activity (Human ERβ): no effect |
| > 10000 | 2250 | 2500 | ERRβ and ERRγ inverse agonists | CC(CO)C/C(=C(\c1ccc(O)cc1)c1ccc(OCCN(C)C)cc1)c1ccccc1 (stereo not shown) [Compound 3n, (Z)-4-{1-[4-(2-Dimethylamino-ethoxy)-phenyl]-5-hydroxy-4-methyl-2-phenyl-pent-1-enyl}-phenol] | – | – |
